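Where inhibition never reached the appropriate level, the endpoint shown equals the highest concentration tested. Otherwise, values were interpolated linearly from a five-concentration, 48-hour dose response in 96-well plates. GI50 is the concentration that inhibits growth by half. The concentration for full growth arrest is given as TGI.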 Where only a bound is given, the exact number is not on record here.

The TGI is the concentration at which net growth stops. A high value points to lower sensitivity of the cells. As usually defined, the GI50 is the concentration that inhibits growth by half.

Some test systems named below: UACC-257 melanoma; SK-MEL-2 melanoma; HCT-15 colon; TK-10 renal; SK-OV-3 ovarian; RXF 393 renal; HOP-62 NSCLC; SF-295 CNS; PC-3 prostate.
What all share (experiment): DTP human tumour cell line panel, 48 h

Take `Cc1nc(-n2nc(-c3ccccc3)cc2-c2ccccc2)sc1C(=O)/C=C/c1cccc([N+](=O)[O-])c1`: the TGI was 66.1 µM with UACC-257 melanoma; 34.2 µM in the experiment on SK-MEL-2 melanoma; above 100 µM in the experiment on HCT-15 colon; 92.3 µM in the experiment on TK-10 renal; above 100 µM in the experiment on SK-OV-3 ovarian; 29.8 µM in the experiment with RXF 393 renal. The TGI stood at 38.1 µM in the experiment on HOP-62 NSCLC and 43.1 µM in the experiment on SF-295 CNS.

Regarding `CCOC(=O)C(=O)Nc1nc2ccc(C)cc2s1`, the TGI in the experiment on UACC-257 melanoma, in the experiment with SK-MEL-2 melanoma, in the experiment on HCT-15 colon, in the experiment with SK-OV-3 ovarian and with HOP-62 NSCLC was above 100 µM throughout.

Regarding `Cc1ccc([N+]2=NC(c3ccccc3)=NN(c3ccccc3)C2)cc1`, the TGI in the experiment on UACC-257 melanoma, with HCT-15 colon, in the experiment on TK-10 renal, with RXF 393 renal, with HOP-62 NSCLC and in the experiment with SF-295 CNS was above 100 µM throughout.

For `CN1C/C(=C\c2ccc(C(=O)O)cc2)C(=O)/C(=C/c2ccc(C(=O)O)cc2)C1`, the TGI in the experiment with UACC-257 melanoma, with SK-MEL-2 melanoma, in the experiment on HCT-15 colon, with TK-10 renal, in the experiment with SK-OV-3 ovarian and with RXF 393 renal was above 100 µM in each case. Besides, the TGI in the experiment with HOP-62 NSCLC and in the experiment with SF-295 CNS was above 100 µM in each case.

Consider `O=C(CCc1cc(-c2ccc(F)cc2)n[nH]1)N(Cc1ccccc1)Cc1ccccc1`, for which the total growth inhibition concentration (TGI) with UACC-257 melanoma, with SK-MEL-2 melanoma, in the experiment on HCT-15 colon, in the experiment with TK-10 renal, in the experiment on SK-OV-3 ovarian and with RXF 393 renal was above 100 µM throughout. The TGI with HOP-62 NSCLC and in the experiment with SF-295 CNS was above 100 µM in each case.

As for `C/C(=N\Nc1n[nH]c(=S)n1N)c1c(O)cc(C)oc1=O`, the TGI in the experiment with UACC-257 melanoma, with SK-MEL-2 melanoma, with HCT-15 colon, in the experiment with TK-10 renal, in the experiment on SK-OV-3 ovarian and in the experiment with HOP-62 NSCLC was above 100 µM each time. Moreover, in the experiment on SF-295 CNS, the TGI is above 100 µM.

For `O/N=C1\C(=C\c2ccc3c(c2)OCCO3)CCCC1C(NO)c1ccc2c(c1)OCCO2` (centres undefined), the TGI was 49.2 µM with UACC-257 melanoma; 68.6 µM with HCT-15 colon; 50.7 µM in the experiment on TK-10 renal; above 100 µM in the experiment with SK-OV-3 ovarian; 59.3 µM with RXF 393 renal; 52.3 µM with HOP-62 NSCLC. Besides, in the experiment with SF-295 CNS, the TGI was above 100 µM.

`COC(=O)C#CC(N)=O`: the TGI was above 70.7 µM in the experiment on UACC-257 melanoma; above 100 µM in the experiment on SK-MEL-2 melanoma; above 100 µM with HCT-15 colon; 99.1 µM in the experiment on TK-10 renal; above 100 µM in the experiment on SK-OV-3 ovarian; above 100 µM in the experiment on RXF 393 renal. Besides, the TGI in the experiment on HOP-62 NSCLC and in the experiment on SF-295 CNS was above 100 µM in each case.

`O=C(N/C(=C\c1ccc(F)cc1)c1nc2ccccc2[nH]1)c1ccccc1`: the TGI in the experiment on UACC-257 melanoma, in the experiment with SK-MEL-2 melanoma, in the experiment with HCT-15 colon, in the experiment on TK-10 renal, in the experiment on SK-OV-3 ovarian and with RXF 393 renal was above 100 µM each time.

Consider `COC(=O)C(=O)C(C#N)c1c(Cl)cccc1Cl` (centres undefined), for which the TGI in the experiment on UACC-257 melanoma, in the experiment on SK-MEL-2 melanoma, with HCT-15 colon, with TK-10 renal, in the experiment with SK-OV-3 ovarian and with RXF 393 renal was above 100 µM in each case. Further, the TGI in the experiment with HOP-62 NSCLC and in the experiment with SF-295 CNS was above 100 µM each time.

`CC1(C2CCC3(C)C(C2)C3Sc2ccccc2)OCCO1` (centres undefined): the TGI in the experiment with UACC-257 melanoma was 41.5 µM; with SK-MEL-2 melanoma, 34.3 µM; in the experiment on HCT-15 colon it was above 100 µM; with TK-10 renal it was above 100 µM; in the experiment with SK-OV-3 ovarian, 88.6 µM; in the experiment on RXF 393 renal, 32.4 µM. Besides, the results for the TGI with HOP-62 NSCLC and in the experiment on SF-295 CNS were 45.8 µM and 46.5 µM, respectively.

Regarding `COc1cc([C@@H]2c3cc4c(cc3[C@@H](NCc3cccc(F)c3)C3COC(=O)[C@@H]32)OCO4)cc(OC)c1O` (some centres undefined), the TGI with UACC-257 melanoma is 39.6 µM; in the experiment on SK-MEL-2 melanoma it was 29.5 µM; with HCT-15 colon, 20.5 µM; with TK-10 renal, 40.9 µM; with SK-OV-3 ovarian, 35.3 µM; with RXF 393 renal, 45.3 µM. In addition, the results for the TGI in the experiment on HOP-62 NSCLC and in the experiment on SF-295 CNS were 4.76 µM and above 65 µM, respectively.

As for `NC(=O)c1nc(-c2ccc(Cl)c(Cl)c2)nc2ccccc12`, the TGI in the experiment with UACC-257 melanoma is above 100 µM; in the experiment on SK-MEL-2 melanoma, above 100 µM; in the experiment on HCT-15 colon it was above 100 µM; with TK-10 renal, above 100 µM; in the experiment with SK-OV-3 ovarian, above 27.3 µM; with RXF 393 renal it was above 22.2 µM. Also, the TGI in the experiment with HOP-62 NSCLC and in the experiment with SF-295 CNS was above 100 µM each time.

As for `Cc1cn2cc(-c3ccc4c(c3)CC(=O)N4)nc2s1`, the GI50 with UACC-257 melanoma is above 100 µM; in the experiment on SK-MEL-2 melanoma, above 100 µM; in the experiment with HCT-15 colon, 67 µM; in the experiment with TK-10 renal it was above 100 µM; in the experiment on PC-3 prostate, above 100 µM; with SK-OV-3 ovarian it was above 100 µM. Moreover, the GI50 is above 100 µM in the experiment with RXF 393 renal, 64.7 µM in the experiment with HOP-62 NSCLC and above 100 µM in the experiment on SF-295 CNS. Moreover, the TGI in the experiment on UACC-257 melanoma, in the experiment with SK-MEL-2 melanoma, with HCT-15 colon, with TK-10 renal, in the experiment on PC-3 prostate and in the experiment on SK-OV-3 ovarian was above 100 µM throughout. In addition, the TGI in the experiment with RXF 393 renal, with HOP-62 NSCLC and in the experiment with SF-295 CNS was above 100 µM throughout.

With `NC1=Nc2ccccc2Sc2ccccc21`, the TGI with UACC-257 melanoma, with SK-MEL-2 melanoma, in the experiment on HCT-15 colon, in the experiment on TK-10 renal, in the experiment on SK-OV-3 ovarian and in the experiment with RXF 393 renal was above 100 µM in each case. In addition, the TGI with HOP-62 NSCLC and in the experiment with SF-295 CNS was above 100 µM throughout.

Regarding `CCN1CCC(O)(/C=C/c2ccccc2)C(C(=O)/C=C/c2ccccc2)C1` (centres undefined), the TGI in the experiment on UACC-257 melanoma was found to be 4.55 µM; with SK-MEL-2 melanoma it was 7.25 µM; with HCT-15 colon, 3.84 µM; with TK-10 renal it was 7.88 µM; in the experiment with SK-OV-3 ovarian, 19.7 µM; with RXF 393 renal, 3.24 µM. Besides, the results for the TGI in the experiment on HOP-62 NSCLC and in the experiment with SF-295 CNS were 28.4 µM and 9.73 µM, respectively.
